US4177269A, “Novel 17-esters of 17α-hydroxy gestogens, compositions containing such compounds, processes for their preparation and methods of treatment therewith” (Aktiebolaget Leo, priority 1976, dated 1979)

Legend:
[1] = test system: Ehrlich ascites tumour, ELD hyperdiploid; assay: Ehrlich ascites tumour, ELD hyperdiploid (46 chromosomes), growth inhibition in mice; format: in vivo, SPF NMRI mice; settings: one i.p. injection, result in words
Text: (§1) The experimental design and the interpretation of the results are in accordance with the standards set by the CCNSC (Cancer Chemotherpy Reports, January 1959 and December 1962).
Ehrlich ascites tumour, ELD hyperdiploid
Experimental animals: SPF NMRI mice.
Tumour implant: 2 × 10^6 tumour cells i.p.
(§2) Therapy: One injection i.p. on the day following implanta-
(§3) Termination: The animals are killed on the 8th day.
Evaluation: Weight of tumours of test animals compared with
those of control animals.

Hepatome AH 130 = Hepatome AH 130 tumour growth inhibition in rats; format: in vivo, Sprague-Dawley rats; settings: one i.p. injection, result in words
Text: (§4) LD50 is the dose that causes a 50 percent lethality of the animals, and ED50 is the dose that causes a 50 percent reduction of tumour size.
as §1
(§5) Experimental animals: Sprague-Dawley rats.
Tumour implant: 5 × 10^6 tumour cells i.p.
as §2, §3
(§6) Evaluation: Weights of tumours of test animals are compared
(§7) with those of control animals.

[2] = test system: Walker carcinosarcoma 256; assay: Walker carcinosarcoma 256 tumour growth inhibition in rats; format: in vivo, Sprague-Dawley rats; settings: daily p.o. for 5 days, result in words
Text: as §4, §1
Walker carcinosarcoma 256.
as §5
Tumour implant: Tumour pieces with 2-4 mm diameter, sub-
Therapy: Daily p.o. administration for 5 days starting on
the day following implantation.
Termination: The animals are killed on the 9th day.
as §6, §7

| Compound | antitumour activity [1] | antitumour activity (Hepatome AH 130) | antitumour activity [2] |
| --- | --- | --- | --- |
| CC(=O)[C@@]1(OC(=O)C(C)OC(=O)CCCCc2ccc(N(CCCl)CCCl)cc2)CC[C@H]2[C@@H]3C=C(Cl)C4=CC(=O)CC[C@]4(C)[C@H]3CC[C@@]21C (stereo partly drawn) [3:8, 6-chloro-17α-/2-(5-(4-(N,N-bis(2-chloroethyl)amino)phenyl)pentanoyloxy)propanoyloxy/pregna-4,6-diene-3,20-dione] | exhibit antitumour activity | exhibit antitumour activity |  |
| CC(=O)[C@@]1(OC(=O)C(C)OC(=O)/C=C/c2ccccc2N(CCCl)CCCl)CC[C@H]2[C@@H]3C=C(C)C4=CC(=O)CC[C@]4(C)[C@H]3CC[C@@]21C (stereo partly drawn) [3:9, 17α-/2-((2E)-3-(2-(N,N-bis(2-chloroethyl)amino)phenyl)propenoyloxy)propanoyloxy/-6-methylpregna-4,6-diene-3,20-dione] | exhibit antitumour activity | exhibit antitumour activity |  |
| CC(=O)[C@@]1(OC(=O)CCCCOC(=O)C(N)Cc2ccc(N(CCCl)CCCl)cc2)CC[C@H]2[C@@H]3C[C@H](F)C4=CC(=O)CC[C@]4(C)[C@H]3CC[C@@]21C (stereo partly drawn) [3:10, 17α-/5-(2-amino-3-(4-(N,N-bis(2-chloroethyl)amino)phenyl)propanoyloxy)pentanoyloxy/-6α-fluoropregn-4-ene-3,20-dione] |  | exhibit antitumour activity |  |
| CC(=O)[C@@]1(OC(=O)COC(=O)CCCc2ccc(N(CCCl)CCCl)cc2)CC[C@H]2[C@@H]3C=C(Cl)C4=CC(=O)[C@@H]5C[C@@H]5[C@]4(C)[C@H]3CC[C@@]21C [3:11, 6-chloro-17α-[4-(4-(N,N-bis(2-chloroethyl)amino)phenyl)butanoyloxyacetoxy]-1α,2α-methylenepregna-4,6-diene-3,20-dione] | exhibit antitumour activity |  | exhibit antitumour activity |
| CC(=O)[C@@]1(OC(=O)COC(=O)[C@@H](N)Cc2ccc(N(CCCl)CCCl)cc2)CC[C@H]2[C@@H]3CCC4=CC(=O)CC[C@]4(C)[C@H]3CC[C@@]21C [3:12, 17-[(2S)-2-amino-3-(4-(N,N-bis(2-chloroethyl)amino)phenyl)propanoyloxyacetoxy]pregn-4-ene-3,20-dione] | exhibit antitumour activity |  | exhibit antitumour activity |
| CC(=O)[C@@]1(OC(=O)CCCOC(=O)[C@@H](N)Cc2ccc(N(CCCl)CCCl)cc2)CC[C@H]2[C@@H]3CCC4=CC(=O)CC[C@]4(C)[C@H]3CC[C@@]21C [3:13, 17-[4-((2S)-2-amino-3-(4-(N,N-bis(2-chloroethyl)amino)phenyl)propanoyloxy)butanoyloxy]pregn-4-ene-3,20-dione] |  | exhibit antitumour activity |  |
| CC(=O)N[C@@H](Cc1ccc(N(CCCl)CCCl)cc1)C(=O)OCCCC(=O)O[C@]1(C(C)=O)CC[C@H]2[C@@H]3CCC4=CC(=O)CC[C@]4(C)[C@H]3CC[C@@]21C [3:15, 17-[4-((2S)-2-acetamido-3-(4-(N,N-bis(2-chloroethyl)amino)phenyl)propanoyloxy)butanoyloxy]pregn-4-ene-3,20-dione] |  | exhibit antitumour activity |  |
| CC(=O)[C@@]1(OC(=O)COC(=O)Cc2ccc(N(CCCl)CCCl)cc2)CC[C@H]2[C@@H]3C=C(C)C4=CC(=O)CC[C@]4(C)[C@H]3CC[C@@]21C [3:17, 17α-[4-(N,N-bis(2-chloroethyl)amino)phenylacetoxyacetoxy]-6-methylpregna-4,6-diene-3,20-dione] |  | exhibit antitumour activity |  |
| CC(=O)[C@@]1(OC(=O)COC(=O)c2ccc(C)c(N(CCCl)CCCl)c2)CC[C@H]2[C@@H]3C=C(Cl)C4=CC(=O)CC[C@]4(C)[C@H]3CC[C@@]21C [3:18, 6-chloro-17α-[3-(N,N-bis(2-chloroethyl)amino)-4-methylbenzoyloxyacetoxy]pregna-4,6-diene-3,20-dione] |  |  | exhibit antitumour activity |
| CC(=O)[C@@]1(OC(=O)COC(=O)[C@@H](N)Cc2cccc(N(CCCl)CCCl)c2)CC[C@H]2[C@@H]3CCC4=CC(=O)CC[C@]4(C)[C@H]3CC[C@@]21C [3:19, 17-[(2S)-2-amino-3-(3-(N,N-bis(2-chloroethyl)amino)phenyl)propanoyloxyacetoxy]pregn-4-ene-3,20-dione] |  | exhibit antitumour activity |  |
| CC(=O)[C@@]1(OC(=O)COC(=O)[C@@H](N)Cc2ccccc2N(CCCl)CCCl)CC[C@H]2[C@@H]3CCC4=CC(=O)CC[C@]4(C)[C@H]3CC[C@@]21C [3:20, 17-[(2S)-2-amino-3-(2-(N,N-bis(2-chloroethyl)amino)phenyl)propanoyloxyacetoxy]pregn-4-ene-3,20-dione] |  | exhibit antitumour activity |  |
| CC(=O)[C@@]1(OC(=O)CCCOC(=O)CCCc2ccc(N(CCCl)CCCl)cc2)CC[C@H]2[C@@H]3C[C@H](C)C4=CC(=O)CC[C@]4(C)[C@H]3CC[C@@]21C [3:21, 17α-[4-(4-(4-(N,N-bis(2-chloroethyl)amino)phenyl)butanoyloxy)butanoyloxy]-6α-methylpregn-4-ene-3,20-dione] |  |  | exhibit antitumour activity |
| CC(=O)[C@@]1(OC(=O)CCCOC(=O)c2ccc(C)c(N(CCCl)CCCl)c2)CC[C@H]2[C@@H]3C=C(C)C4=CC(=O)CC[C@]4(C)[C@H]3CC[C@@]21C [3:23, 17α-[4-(3-(N,N-bis(2-chloroethyl)amino)-4-methylbenzoyloxy)butanoyloxy]-6-methylpregna-4,6-diene-3,20-dione] |  | exhibit antitumour activity |  |
| CC(=O)[C@@]1(OC(=O)CCCOC(=O)CCCc2ccc(N(CCCl)CCCl)cc2)CC[C@H]2[C@@H]3C=C(Cl)C4=CC(=O)[C@@H]5C[C@@H]5[C@]4(C)[C@H]3CC[C@@]21C [3:24, 6-chloro-17α-[4-(4-(4-(N,N-bis(2-chloroethyl)amino)phenyl)butanoyloxy)butanoyloxy]-1α,2α-methylenepregna-4,6-diene-3,20-dione] |  | exhibit antitumour activity |  |
| CC(=O)[C@@]1(OC(=O)COC(=O)c2ccc(Cl)c(N(CCCl)CCCl)c2)CC[C@H]2[C@@H]3C[C@H](F)C4=CC(=O)CC[C@]4(C)[C@H]3CC[C@@]21C [3:25, 17α-[4-chloro-3-(N,N-bis(2-chloroethyl)amino)benzoyloxyacetoxy]-6α-fluoropregn-4-ene-3,20-dione] |  | exhibit antitumour activity |  |
| CC(=O)[C@@]1(OC(=O)COC(=O)CCOc2ccc(N(CCCl)CCCl)cc2)CC[C@H]2[C@@H]3CCC4=CC(=O)CC[C@]4(C)[C@H]3CC[C@@]21C [3:26, 17α-[3-(4-(N,N-bis(2-chloroethyl)amino)phenoxy)propionyloxyacetoxy]pregn-4-ene-3,20-dione] |  | exhibit antitumour activity |  |
| CC(=O)[C@@]1(OC(=O)CNC(=O)c2ccc(C)c(N(CC(C)Cl)CC(C)Cl)c2)CC[C@H]2[C@@H]3C[C@H](C)C4=CC(=O)CC[C@]4(C)[C@H]3CC[C@@]21C (stereo partly drawn) [4:2, 17α-/3-(N,N-bis(2-chloropropyl)amino)-4-methylbenzoylaminoacetoxy/-6α-methylpregn-4-ene-3,20-dione] |  | exhibit antitumour activity |  |
| C=C1C[C@H]2[C@@H]3C=C(Cl)C4=CC(=O)CC[C@]4(C)[C@H]3CC[C@]2(C)[C@@]1(OC(=O)COC(=O)Nc1ccc(N(CCCl)CCCl)cc1OC)C(C)=O [5:2, 6-chloro-17α-/4-(N,N-bis(2-chloroethyl)amino)-2-methoxyphenylcarbamoyloxyacetoxy/-16-methylenepregna-4,6-diene-3,20-dione] |  | exhibit antitumour activity |  |
| CC(=O)[C@@]1(OC(=O)COC(=O)Oc2ccc(N(CCCl)CCCl)cc2)[C@H](C)C[C@H]2[C@@H]3C=C(Cl)C4=CC(=O)CC[C@]4(C)[C@H]3CC[C@@]21C [5:3, 6-chloro-17α-/4-(N,N-bis(2-chloroethyl)amino)phenoxycarbonyloxyacetoxy/-16α-methylpregna-4,6-diene-3,20-dione] |  | exhibit antitumour activity |  |
| CC(=O)[C@@]1(OC(=O)COC(=O)Oc2ccc(N(CCCl)CCCl)cc2)CC[C@H]2[C@@H]3CCC4=CC(=O)CC[C@]4(C)[C@H]3CC[C@@]21C [5:4, 17α-[4-(N,N-bis(2-chloroethyl)amino)phenoxycarbonyloxyacetoxy]pregn-4-ene-3,20-dione] | exhibit antitumour activity | exhibit antitumour activity |  |
| CC(=O)[C@@]1(OC(=O)CCCNC(=O)C(C)(C)c2ccc(N(CCCl)CCCl)cc2)CC[C@H]2[C@@H]3CCC4=CC(=O)CC[C@@H]4[C@H]3CC[C@@]21C [6:2, 17α-/4-(2-(4-(N,N-bis(2-chloroethyl)amino)phenyl)-2-methylpropanoylamino)butyanoyloxy/-19-norpregn-4-ene-3,20-dione] |  | exhibit antitumour activity |  |
| CC(=O)[C@@]1(OC(=O)CCCCNC(=O)c2ccc(C)c(N(CCBr)CCBr)c2)CC[C@H]2[C@@H]3C[C@H](F)C4=CC(=O)CC[C@]4(C)[C@H]3CC[C@@]21C [6:3, 17α-/5-(3-(N,N-bis(2-bromoethyl)amino)-4-methylbenzoylamino)pentanoyloxy/-6α-fluoropregn-4-ene-3,20-dione] |  | exhibit antitumour activity |  |
| CC(=O)[C@@]1(OC(=O)CCCNC(=O)c2ccc(C)c(N(CCCl)CCCl)c2)CC[C@H]2[C@@H]3CCC4=CC(=O)CC[C@]4(C)[C@H]3CC[C@@]21C [6:4] | exhibit antitumour activity | exhibit antitumour activity |  |
